Tests used:
[1] = Mannitol permeability assay (basolateral to apical) across RBE4 monolayers; type: in vitro ADME, rat; details: rat
Procedure: (§1) Incubation was performed under cell culture conditions (37 °C, 5% CO2, humidified atmosphere) on a horizontal shaker (55 rpm). […] Basolateral volume was adjusted after each sampling to compensate for changes in the hydrostatic pressure. TEER measurements before and after the assay were carried out to confirm barrier integrity. The apparent permeability coefficients (Papp) in nm per second were calculated according to Artursson. Each experiment was performed in at least three replicates. As was described for the TEER measurements above, mannitol fluxes were compared in the ThinCert®, Transwell®, and Sarstedt-TC-insert systems, using 6-well and 12-well multiwell plates and different membrane materials. Based on this comparison, all subsequent experiments were performed with ThinCert® cell culture inserts [12-well, 0.4 µm pore size, polyethylene terephthalate (PET)] from Greiner Bio-One.

RBE4 cell monolayers = assay: as above; type: in vitro ADME, rat
Procedure: as §1

[2] = Mannitol permeability assay (basolateral to apical) across hCMEC/D3 monolayers; type: in vitro ADME, human; details: human
Procedure: as §1

hCMEC/D3 cell monolayers = assay: as above; type: in vitro ADME, human
Procedure: as §1

[3] = Paracellular mannitol flux across LLC-MDR1 monolayers; type: in vitro ADME, porcine; details: pig, LLC-PK1, corresponding to the flux per hour, read-out: mannitol permeability
LLC-MDR1 cell monolayers = assay: as above; type: in vitro ADME, porcine
[4] = tested on: Pgp expression in RBE4 cells; assay: Western blot of Pgp expression, RBE4 cells; type: cell-based, rat
Procedure: (§2) Piet Borst (The Netherlands Cancer Institute, Amsterdam, The Netherlands) as template. The linker sequence in the vector fusing EGFP and MDR1 consists of 36 bp ([…]). hCMEC/D3-WT, RBE4-WT, and hCMEC/D3-MDR1-EGFP cell lines were cultivated as previously described. The same culture conditions were used for the newly prepared RBE4-MDR1-EGFP cell line. As described previously, hydrocortisone (1.4 µM) was added to the culture medium to enhance the expression and functionality of Pgp and transendothelial resistance. All endothelial cell lines were grown on rat-tail collagen I (60 µg/mL, Gibco) coated 100 mm cultures dishes or permeable membrane supports at 37 °C and 5% CO2. Pgp-EGFP protein expression in MDR1-EGFP transduced cells was induced by cell cultivation in medium containing […] doxycycline. Expression of Pgp-EGFP was regularly verified by observing the cells with an inverted fluorescence microscope. Doxycycline supplementation of the medium was maintained during the whole culturing period of Pgp-EGFP expressing cells. For experiments, hCMEC/D3 and RBE4 cells were seeded in a density of 50,000 cells/cm^2. […]
(§3) Pgp expression in immortalized cell lines, primary cells, and brain capillaries was evaluated by western blotting.

[5] = tested on: Pgp expression in hCMEC/D3 cells; assay: Western blot of Pgp expression, hCMEC/D3 cells; type: cell-based, human
Procedure: as §2, §3

Pgp in RBE4-WT cells = assay: Rhodamine 123 uptake/accumulation assay, RBE4-WT cells; type: cell-based, rat; details: tariquidar 0.5 µM
Procedure: The functionality of Pgp in RBE4-WT, RBE4-MDR1-EGFP, hCMEC/D3-WT, hCMEC/D3-MDR1-EGFP cells, and primary rBCECs was analyzed by measuring the uptake of the fluorescent Pgp substrate Rho123 (Sigma-Aldrich). Cells were grown on 6-well plates and cultured for seven days in the presence or absence of doxycycline (1 µg/mL, Biochrom). […] Afterward, Rho123 (5 µM, dissolved in ethanol) was added and cells were incubated for another two hours. Rho123 transport was terminated by washing the cells twice with ice-cold PBS. Intracellular Rho123 concentration was determined by cell lysis in standard lysis buffer (25 mM Tris, 50 mM NaCl, 0.5% (w/v) sodium deoxycholate, 0.5% (w/v) Triton X-100) and measurement of fluorescence intensity with the FLUOstar OPTIMA (ex.: 485 nm, em.: 520 nm; BMG Labtech). Protein concentrations were determined using a BCA assay kit (Thermo Fisher Scientific). Rho123 uptake was obtained for each condition in triplicates and calculated as absolute fluorescence per mg protein. Additionally, Pgp functionality was expressed as multidrug resistance activity factor (MAF) as described by Huber et al.. This factor describes Pgp efflux activity based on differences in intracellular Rho123 accumulation in cells after Pgp inhibition compared to cells with active Pgp-mediated efflux. Thus, higher MAF values correlate with increased Pgp activity. For better comparison, differences in Rho123 accumulation are normalized to intracellular Rho123 levels in inhibitor-treated cells. MAF values for Pgp were calculated according to Huber et al. 2012 utilizing the following equation: MAF (%) = 100 · (MFITQ − MFI0)/(MFITQ) where MFITQ and MFI0 represent the mean fluorescence intensity of intracellular Rho123 in tariquidar (TQ)-treated and non-treated cells, respectively.

[6] = target: T1, Pgp in RBE4-MDR1-EGFP cells (Homo sapiens, UniProt P08183); assay: Rhodamine 123 uptake/accumulation assay, RBE4-MDR1-EGFP cells; type: cell-based, rat; details: RBE4-MDR1-EGFP in the presence of doxycycline; tariquidar 0.5 µM
T1 construct: expressed in transfected cells; host or cells: RBE4 (rat BCEC line), lentiviral transduction, doxycycline-inducible
Procedure: as §2, with “cells/cm^2. Immortalized MDR1 transfected porcine kidney LLC-PK1 (LLC-MDR1) cells, which were used as a reference standard for vectorial transport experiments, were kindly provided by Prof. Piet Borst.” for “cells/cm^2.”

Pgp in hCMEC/D3-WT cells = target: T2, Pgp in hCMEC/D3-WT cells (Homo sapiens, UniProt P08183); assay: Rhodamine 123 uptake/accumulation assay, hCMEC/D3-WT cells; type: cell-based; details: tariquidar 0.5 µM
T2 construct: endogenous in cells; host or cells: hCMEC/D3-WT
Procedure: The functionality of Pgp in RBE4-WT, RBE4-MDR1-EGFP, hCMEC/D3-WT, hCMEC/D3-MDR1-EGFP cells, and primary rBCECs was analyzed by measuring the uptake of the fluorescent Pgp substrate Rho123 (Sigma-Aldrich). Cells were grown on 6-well plates and cultured for seven days in the presence or absence of doxycycline (1 µg/mL, Biochrom). […] Afterward, Rho123 (5 µM, dissolved in ethanol) was added and cells were incubated for another two hours. Rho123 transport was terminated by washing the cells twice with ice-cold PBS. […] Rho123 uptake was obtained for each condition in triplicates and calculated as absolute fluorescence per mg protein. Additionally, Pgp functionality was expressed as multidrug resistance activity factor (MAF) as described by Huber et al. [40]. This factor describes Pgp efflux activity based on differences in intracellular Rho123 accumulation in cells after Pgp inhibition compared to cells with active Pgp-mediated efflux. Thus, higher MAF values correlate with increased Pgp activity. […] MAF values for Pgp were calculated according to Huber et al. 2012 utilizing the following equation: MAF (%) = 100 · (MFITQ − MFI0)/(MFITQ) where MFITQ and MFI0 represent the mean fluorescence intensity of intracellular Rho123 in tariquidar (TQ)-treated and non-treated cells, respectively.

Pgp in primary rBCECs = assay: Rhodamine 123 uptake/accumulation assay, primary rBCECs; type: cell-based, rat; details: tariquidar 0.5 µM, P < 0.0001
Source text: The RBE4 and hCMEC/D3 cell lines used here are immortalized, which has the advantage that these cells are stable for several passages and may yield a large number of endothelial cells with the same genetic and phenotypical characteristics. The immortalization status, however, causes several alterations as compared to the native original cell type, including low junctional tightness of cell monolayers and reduced expression of efflux transporters such as Pgp. Therefore, for comparison with the MDR1-EGFP transduced rat RBE4 cells, experiments were also performed with primary cultured rat brain capillary endothelial cells (rBCECs). As described by us previously, rBCECs were prepared following a protocol by Régina et al. and Perrière et al. from 2 to 3 weeks old Wistar rats (obtained from Charles River; Sulzfeld, Germany). All animals were treated according to protocols evaluated and approved by the ethical committee of our university. In short, meninges were removed from cerebral cortices in phosphate-buffered saline (PBS) with 1% penicillin (100 U/mL)/streptomycin (100 μg/mL) (Biochrom AG) on ice. Subsequently, cortices were mechanically dissociated with scalpels. […]
The functionality of Pgp in RBE4-WT, RBE4-MDR1-EGFP, hCMEC/D3-WT, hCMEC/D3-MDR1-EGFP cells, and primary rBCECs was analyzed by measuring the uptake of the fluorescent Pgp substrate Rho123 (Sigma-Aldrich). […] Intracellular Rho123 concentration was determined by cell lysis in standard lysis buffer (25 mM Tris, 50 mM NaCl, 0.5% (w/v) sodium deoxycholate, 0.5% (w/v) Triton X-100) and measurement of fluorescence intensity with the FLUOstar OPTIMA (ex.: 485 nm, em.: 520 nm; BMG Labtech). Protein concentrations were determined using a BCA assay kit (Thermo Fisher Scientific). Rho123 uptake was obtained for each condition in triplicates and calculated as absolute fluorescence per mg protein. Additionally, Pgp functionality was expressed as multidrug resistance activity factor (MAF) as described by Huber et al.. […]

[7] = RBE4-MDR1 + dox, 7 days after seeding, basolateral to apical, ThinCert 12-well, 0.4 µm, PET
[8] = RBE4-WT, 6-well, Corning #3412, PC, 1·10^8 pores/cm²
[9] = RBE4-WT, 12-well, Corning #3460, PET, 4·10^6 pores/cm²
[10] = RBE4-WT, 12-well, Sarstedt #83.3931.040, PET, 1·10^8 pores/cm²
[11] = RBE4-WT, 7 days after seeding, basolateral to apical, ThinCert (Greiner #665641) 12-well, 0.4 µm, PET, 2·10^6 pores/cm²
[12] = hCMEC/D3-MDR1 + dox, 7 days after seeding, basolateral to apical, ThinCert 12-well, 0.4 µm, PET
[13] = hCMEC/D3-WT, 12-well, Corning #3460, PET, 4·10^6 pores/cm²
[14] = hCMEC/D3-WT, 7 days after seeding, basolateral to apical, ThinCert (Greiner #665641) 12-well, 0.4 µm, PET, 2·10^6 pores/cm²
[15] = hCMEC/D3-WT, 6-well, Corning #3412, PC, 1·10^8 pores/cm²

T1 sequence (P08183 with tags, fused parts or gaps): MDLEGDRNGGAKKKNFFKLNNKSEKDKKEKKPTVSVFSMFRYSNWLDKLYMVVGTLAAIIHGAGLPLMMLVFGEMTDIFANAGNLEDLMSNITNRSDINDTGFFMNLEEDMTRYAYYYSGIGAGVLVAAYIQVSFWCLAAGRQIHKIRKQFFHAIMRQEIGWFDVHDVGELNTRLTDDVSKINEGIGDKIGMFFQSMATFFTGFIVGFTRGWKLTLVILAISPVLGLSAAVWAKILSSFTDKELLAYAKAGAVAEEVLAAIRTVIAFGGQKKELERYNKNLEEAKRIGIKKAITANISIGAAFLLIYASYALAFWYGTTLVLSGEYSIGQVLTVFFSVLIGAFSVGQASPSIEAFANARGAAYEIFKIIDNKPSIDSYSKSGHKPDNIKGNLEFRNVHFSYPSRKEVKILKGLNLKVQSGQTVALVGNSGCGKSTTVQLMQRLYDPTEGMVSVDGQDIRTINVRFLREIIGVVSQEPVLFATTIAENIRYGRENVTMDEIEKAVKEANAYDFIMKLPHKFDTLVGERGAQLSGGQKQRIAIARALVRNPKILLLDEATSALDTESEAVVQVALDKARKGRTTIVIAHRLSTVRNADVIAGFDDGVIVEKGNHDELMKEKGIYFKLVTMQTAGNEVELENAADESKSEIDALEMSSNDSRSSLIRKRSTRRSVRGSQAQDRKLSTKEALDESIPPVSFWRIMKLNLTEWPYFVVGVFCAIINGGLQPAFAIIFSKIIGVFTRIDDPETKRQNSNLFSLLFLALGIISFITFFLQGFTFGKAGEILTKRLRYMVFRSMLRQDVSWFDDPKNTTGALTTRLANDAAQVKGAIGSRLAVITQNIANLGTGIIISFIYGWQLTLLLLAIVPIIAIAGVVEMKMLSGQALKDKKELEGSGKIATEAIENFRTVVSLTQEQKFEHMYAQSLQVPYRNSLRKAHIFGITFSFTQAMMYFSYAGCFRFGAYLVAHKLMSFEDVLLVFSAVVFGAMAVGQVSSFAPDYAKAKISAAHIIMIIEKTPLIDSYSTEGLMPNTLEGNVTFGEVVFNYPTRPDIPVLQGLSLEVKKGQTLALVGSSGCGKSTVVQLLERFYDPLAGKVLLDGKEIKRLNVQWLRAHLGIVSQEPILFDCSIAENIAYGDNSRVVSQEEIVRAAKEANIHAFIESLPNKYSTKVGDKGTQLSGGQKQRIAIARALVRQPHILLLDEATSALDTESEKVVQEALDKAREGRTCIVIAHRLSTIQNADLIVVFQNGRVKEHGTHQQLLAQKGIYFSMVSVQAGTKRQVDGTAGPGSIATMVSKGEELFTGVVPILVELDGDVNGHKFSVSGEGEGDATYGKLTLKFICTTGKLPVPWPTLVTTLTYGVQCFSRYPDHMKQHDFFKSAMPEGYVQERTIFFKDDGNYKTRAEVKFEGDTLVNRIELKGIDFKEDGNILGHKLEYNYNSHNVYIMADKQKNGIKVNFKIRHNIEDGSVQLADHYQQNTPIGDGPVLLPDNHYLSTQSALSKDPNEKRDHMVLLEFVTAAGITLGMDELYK
T2 sequence (P08183 whole entry): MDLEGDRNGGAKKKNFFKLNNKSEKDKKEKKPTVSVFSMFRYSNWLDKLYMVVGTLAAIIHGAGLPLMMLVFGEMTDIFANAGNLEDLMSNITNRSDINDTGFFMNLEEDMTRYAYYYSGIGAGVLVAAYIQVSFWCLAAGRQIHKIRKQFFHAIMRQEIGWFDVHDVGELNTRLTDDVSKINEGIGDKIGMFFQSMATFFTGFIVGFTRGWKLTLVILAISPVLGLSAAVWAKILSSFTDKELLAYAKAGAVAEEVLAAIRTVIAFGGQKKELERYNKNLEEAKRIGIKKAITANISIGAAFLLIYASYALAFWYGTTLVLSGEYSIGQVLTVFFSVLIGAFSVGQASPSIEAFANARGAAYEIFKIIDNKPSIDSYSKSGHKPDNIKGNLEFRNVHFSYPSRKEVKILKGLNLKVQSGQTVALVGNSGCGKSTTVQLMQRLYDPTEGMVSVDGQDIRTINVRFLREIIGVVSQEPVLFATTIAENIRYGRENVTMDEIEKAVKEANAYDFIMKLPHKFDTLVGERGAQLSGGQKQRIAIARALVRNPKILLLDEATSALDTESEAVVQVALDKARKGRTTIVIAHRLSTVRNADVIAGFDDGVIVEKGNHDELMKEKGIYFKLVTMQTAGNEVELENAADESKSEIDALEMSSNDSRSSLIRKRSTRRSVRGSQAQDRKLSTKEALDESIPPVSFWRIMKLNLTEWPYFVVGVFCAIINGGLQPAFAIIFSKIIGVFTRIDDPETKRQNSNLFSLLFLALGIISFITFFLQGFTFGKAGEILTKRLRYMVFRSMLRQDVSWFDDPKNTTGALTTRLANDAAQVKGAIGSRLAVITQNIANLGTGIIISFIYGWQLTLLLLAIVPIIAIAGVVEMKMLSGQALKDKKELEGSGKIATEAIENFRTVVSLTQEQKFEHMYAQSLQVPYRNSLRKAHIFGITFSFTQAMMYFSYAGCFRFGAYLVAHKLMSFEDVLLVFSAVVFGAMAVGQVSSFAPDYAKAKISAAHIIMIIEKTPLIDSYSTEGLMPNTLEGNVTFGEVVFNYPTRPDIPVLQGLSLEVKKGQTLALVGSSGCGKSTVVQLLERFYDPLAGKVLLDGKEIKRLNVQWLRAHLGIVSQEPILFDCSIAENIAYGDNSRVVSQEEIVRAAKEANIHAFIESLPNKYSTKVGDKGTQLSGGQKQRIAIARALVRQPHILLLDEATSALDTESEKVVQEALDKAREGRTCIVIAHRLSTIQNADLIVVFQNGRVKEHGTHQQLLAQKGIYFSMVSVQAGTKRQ

OC[C@@H](O)[C@@H](O)[C@H](O)[C@H](O)CO [Mannitol, D-mannitol]
Papp at 180 min, 1.85 kBq/mL [1, 7]: 6.07 ± 0.159 ×10⁻⁶ cm/s
Papp at 180 min, 1.85 kBq/mL [1, 8]: 11.3 ± 1.18 ×10⁻⁶ cm/s
Papp at 180 min, 1.85 kBq/mL [1, 9]: 15.4 ± 0.215 ×10⁻⁶ cm/s
Papp at 180 min, 1.85 kBq/mL [1, 10]: 21 ± 0.352 ×10⁻⁶ cm/s
Papp at 180 min, 1.85 kBq/mL [1, 11]: 5.96 ± 0.407 ×10⁻⁶ cm/s
Mannitol permeability (RBE4 cell monolayers; [7]): 4.30 ± 0.22 %/h
Mannitol permeability (RBE4 cell monolayers; [8]): 13.62 ± 0.80 %/h
Mannitol permeability (RBE4 cell monolayers; [9]): 11.15 ± 0.24 %/h
Mannitol permeability (RBE4 cell monolayers; [10]): 19.18 ± 0.13 %/h
Mannitol permeability (RBE4 cell monolayers; [11]): 4.20 ± 0.30 %/h
Papp at 180 min, 1.85 kBq/mL [2, 12]: 5.67 ± 0.252 ×10⁻⁶ cm/s
Papp at 180 min, 1.85 kBq/mL [2, 13]: 13.5 ± 0.372 ×10⁻⁶ cm/s
Papp at 180 min, 1.85 kBq/mL ([2]; hCMEC/D3-WT, 12-well, Sarstedt #83.3931.040, PET, 1·10^8 pores/cm²): 19.8 ± 0.489 ×10⁻⁶ cm/s
Papp at 180 min, 1.85 kBq/mL [2, 14]: 5.38 ± 0.432 ×10⁻⁶ cm/s
Papp B→A at 180 min, 1.85 kBq/mL [2, 15]: 10 ×10⁻⁶ cm/s
Mannitol permeability (hCMEC/D3 cell monolayers; [12]): 3.81 ± 0.11 %/h
Mannitol permeability (hCMEC/D3 cell monolayers; [15]): 14.76 ± 1.01 %/h
Mannitol permeability (hCMEC/D3 cell monolayers; [13]): 11.17 ± 0.36 %/h
Mannitol permeability (hCMEC/D3 cell monolayers; [14]): 3.71 ± 0.13 %/h
Papp at 180 min, 1.85 kBq/mL [3]: < 1.2 ×10⁻⁶ cm/s
paracellular mannitol flux (LLC-MDR1 cell monolayers): less than 1 % of mannitol diffusion per hour

C[C@H]1c2cccc(O)c2C(=O)C2=C(O)[C@]3(O)C(=O)C(C(N)=O)=C(O)[C@@H](N(C)C)[C@@H]3[C@@H](O)[C@@H]21 [dox, doxycycline]
increase of Pgp expression in comparison to WT cells ([4]; RBE4-MDR1-EGFP in the presence of dox, normalized to β-actin): 9 fold
effect on Pgp expression in WT cells ([4]; RBE4-WT): did not affect
increase of Pgp expression in comparison to WT cells ([5]; hCMEC/D3-MDR1-EGFP in the presence of dox, normalized to β-actin): sevenfold
effect on Pgp expression in WT cells ([5]; hCMEC/D3-WT): did not affect

COc1cc2c(cc1OC)CN(CCc1ccc(NC(=O)c3cc(OC)c(OC)cc3NC(=O)c3cnc4ccccc4c3)cc1)CC2 [tariquidar]
effect of Pgp inhibitor on accumulation of Rho123 (Pgp in RBE4-WT cells): significantly increased
effect of Pgp inhibitor on increased Pgp-mediated Rho123 efflux [6]: could be inhibited
effect of Pgp inhibitor on accumulation of Rho123 (Pgp in hCMEC/D3-WT cells): significantly increased
effect of Pgp inhibitor in Rho123 uptake assay (Pgp in primary rBCECs): significant effect

— PMC8330100, “Similarities and differences in the localization, trafficking, and function of P-glycoprotein in MDR1-EGFP-transduced rat versus human brain capillary endothelial cell lines” (Fluids and Barriers of the CNS, 2021)
